Test results taken from patent US20200069775A1, “BRAIN OSTEOCALCIN RECEPTOR AND COGNITIVE DISORDERS” (The Trustees of Columbia University in the City of New York, priority 2017, published 2020).

Test system: 12 and 16 month-old WT mice
Experiment: Peripheral osteocalcin delivery by mini-pumps in aging WT mice, DLT, EPMT, MWMT, NOR
Type: in vivo, mouse
Settings: 30 or 90 ng/h peripherally via mini-pumps for 60 days
Experimental: For plasma injection experiments, 100 μl of plasma were injected 8 times during 24 days, via tail vein. Each group described is represented individually in each panel. For osteocalcin delivery in WT mice, pumps (Alzet micro-osmotic pump, Model 1002) delivering osteocalcin (30 ng/hr for 12 month-old and 90 ng/hr for 16 month-old mice), or vehicle, were surgically installed subcutaneously in the back of mice. For alendronate delivery to 3 month-old mice, intraperitoneal injections (40 μg/kg) were performed twice a week for 6 weeks. During the last 4 weeks of treatment and during behavioral testing, half of the alendronate-treated mice received 60 ng/hr osteocalcin by osmotic pump. […]
Elevated plus maze test (EPMT): This test takes advantage of the aversion of rodents to open spaces. […] The total number of arm entries and time spent in open arms is recorded. […]
Light to dark transition test: This test is based on the innate aversion of rodents to brightly illuminated areas and on their spontaneous exploratory behavior in response to the stressor that light represents. […] Mice were tested for 6 min and […] were recorded: (i) latency to enter the lit compartment, (ii) time spent in this compartment, an index of the anxiety-related behavior and (iii) number of transitions between compartments, an index of anxiety-related behavior as well as exploratory activity. […]

Question: How did the “memory (MWMT and NOR)” value (12- and 16-month-old WT mice) turn out when “osteocalcin: Recombinant osteocalcin bacterially produced, cleaved from the GST subunit; completely undercarboxylated at all three sites; full-length mouse osteocalcin (YLGASVPSPDPLEPTREQCELNPACDELSDQYGLKTAYKRIYGITI)” was run?
Answer: memory was significantly improved

Question: What about the “exploratory and anxiety-like behavior (DLT or EPMT)” value (12 and 16 month-old WT mice) of the same substance?
Answer: better exploratory behavior and decreased anxiety-like behavior
